US10668039B2, “Methods for treatment of adenoid cystic carcinoma” (THE CHILDREN'S MEDICAL CENTER CORPORATION, priority 2016, dated 2020)
“Also recorded” adds a separate entry of the source.

What was measured:
c-myb:GFP positive cells = test: Confocal imaging of CHT, c-myb:GFP positive cells; type: in vivo, zebrafish; details: 10 μM, treated 48-72 hpf, imaged at 72 hpf
Protocol: (§1) Confocal imaging: Double transgenic c-myb:GFP; lyz:dsRed or c-myb:GFP; mpeg1:mCherry embryos from the same clutch were treated between 48-72 hpf (n=4 biological replicates per treatment group) with 10 μM ATRA diluted in E3. Live 72 hpf embryos were embedded in 0.8% low-melting point agarose containing 0.04 mg/mL Tricaine and imaged on a Nikon Eclipe Ti microscope with 20× Plan-Apo DIC N.A. 0.75. CHT cells were counted in Z-stack image projections processed on Imaris software (Bitplane).

lyz:dsRed positive cells = test: Confocal imaging of CHT, lyz:dsRed positive cells; type: in vivo, zebrafish; details: 10 μM, treated 48-72 hpf, imaged at 72 hpf
Protocol: as §1

mpx = test: In situ hybridization of whole embryos, mpx; type: in vivo, zebrafish; details: 10 μM, treated 48-72 hpf, fixed at 72 hpf
Protocol: In situ hybridization: Wildtype AB embryos from the same clutch were treated between 48-72 hpf with 10 μM retinoic acid agonists diluted in E3, fixed at 72 hpf in 4% paraformaldehyde, and processed as previously described. CHT staining in the embryos was blindly scored as high, medium, or low, and summed across 3 independent experiments as done previously. Representative images were acquired on a Nikon ZMS 18 microscope.

cleaved caspase-3 = test: Immunohistochemistry of ACC primagrafts, cleaved caspase-3; type: in vivo, nude mice; details: ACC x6, x9, x11 primagrafts at conclusion of long-term studies
From the text: (§2) Primagraft experiments: For in vivo drug testing, ACC tumor fragments from host animals were implanted subcutaneously into the flank of nude mice (CRL: ATH/NU). Once tumors reached 125-250 mm3, mice were randomized to receive vehicle or drug diluted in 10:90 DMSO:10% hydroxypropyl-beta-cyclodextrin orally until controls reached a tumor volume endpoint of 1-2 cm3 (4-9 mice per group: x5M1 and x6, 4 treated vs. 9 vehicle controls; x9, 4 treated vs. 5 vehicle controls; x11, 5 treated vs. 8 vehicle controls). Mice were treated with ATRA (ACC x6 and x11: 4 mg/mL, 0.2 mL flat dose; ACC×9: 3 mg/mL, 0.2 mL flat dose) or isotretinoin (30 mg/mL, 0.2 mL flat dose). Tumor growth was monitored and mice weighed twice weekly and studies ended when final group reached tumor volume endpoint. No statistical methods were employed to determine the sample size, and no blinding of investigators was performed. […]
(§3) Immunohistochemistry: Sectioning and staining was carried out by the Dana-Farber/Harvard Cancer Center Specialized Histopathology Core using standard procedures on ACC x6, x9, and x11 samples (from long-term tumor growth inhibition studies). […] Primary antibody was detected using Bond Polymer Refine Detection kit. […] Images (>200 nuclei each) from three different individual primagrafts were blindly quantitated.

Ki-67 = test: Immunohistochemistry of ACC primagrafts, Ki-67; type: in vivo, nude mice; details: ACC x6, x9, x11 primagrafts at conclusion of long-term studies
From the text: as §2, §3

RARA and RARG = test: RNA-seq of short-term ACC x9 primagrafts, RARA and RARG; type: in vivo, human; details: 3 days, n=3, p<0.05
From the text: as §2, with “performed. After long-term tumor growth inhibition studies were completed, the ATRA treated mice stopped receiving treatment and were maintained longer as indicated to monitor tumor maintenance after treatment cessation. For long-term tumor growth inhibition studies, ACC x6, x9, and x11 models were used and primagrafts collected at the completion of the study. Short-term kinetics studies were also undertaken with ACC x9 and x5M1 primagrafts involving 3 day ATRA treatments.” for “performed.”

MYB [1] = test: RNA-seq of short-term ACC x9 primagrafts, MYB; type: in vivo, human; details: 3 days, n=3, p<0.05
From the text: as §2, with “performed. After long-term tumor growth inhibition studies were completed, the ATRA treated mice stopped receiving treatment and were maintained longer as indicated to monitor tumor maintenance after treatment cessation. For long-term tumor growth inhibition studies, ACC x6, x9, and x11 models were used and primagrafts collected at the completion of the study. Short-term kinetics studies were also undertaken with ACC x9 and x5M1 primagrafts involving 3 day ATRA treatments.” for “performed.”

MYB [2] = test: ChIP-seq of short-term ACC x9 primagrafts, MYB binding; type: in vivo, human; details: 3 days
From the text: as §2
(§4) All ChIP-Seq datasets were aligned to UCSC build version hg19 of the human genome using Bowtie2 (version 2.2.1) with the following parameters: -end-to-end, —NO, -L20. […] ChIP-seq enrichment was determined as described previously in a 5 kb region (as counts per million) centered on the enriched peak regions (n=1,868) of the given MYB datasets. […]

H3K27ac = test: ChIP-seq of short-term ACC x9 primagrafts, H3K27ac; type: in vivo, human; details: 3 days
From the text: as §2, §4

ACC PDX models = test: ATRA comparison TGI studies in ACC PDX models; type: in vivo; details: ATRA 8 mg/kg to 32 mg/kg; tamibarotene 2 mg/kg
Protocol: The TGI studies in ACC PDX models were repeated in order to compare the original ATRA dose (3 or 4 mg/ml) against a more physiologically relevant dose of ATRA (8 mg/kg) and an alternative retinoid Tamibarotene (originally developed for ATRA-resistant cancer settings, approved in Japan and currently in development at Syros Pharmaceuticals).

SMILES: CC(C=CC1=C(C)CCCC1(C)C)=CC=C/C(C)=C/C(=O)O [ATRA, (E)-3,7-dimethyl-9-(2,6,6-trimethyl-1-cyclo-hexen-1-yl)-2,4,6,8-nonatetraenoic acid]
- number of c-myb:GFP+ cells in the CHT (c-myb:GFP positive cells): significant decrease; also recorded: decreased
- lyz:dsRed+ cells in the CHT (lyz:dsRed positive cells): no significant difference; also recorded: no significant effect
- mpx expression (staining) in the CHT (mpx): no significant difference; also recorded: did not decrease staining
- cell death (cleaved caspase-3 positive nuclei) (cleaved caspase-3): induced more cell death
- proliferation (Ki-67 positive nuclei) (Ki-67): no significant effect
- increase of RARA and RARG gene levels (RARA and RARG): ~40%
- decrease of MYB levels (MYB [1]): ~20%
- enrichment among MYB-bound regions genome-wide (MYB [2]): reduced enrichment
- H3K27ac at translocated enhancer sites (H3K27ac): decrease
- tumor growth inhibition in the PDX studies (ACC PDX models): showed tumor growth inhibition
